Like-named read-outs stand apart in the source and are kept apart here.
Legend:
[1] = tested on: NUGC3 p53 Y220C; experiment: Cell Proliferation Assay (CellTiter-Glo, CTG), NUGC3 p53 Y220C; assay type: cell-based; settings: Homo sapiens, NUGC-3, 120 h, NUGC3 cells, 5 days
Procedure, shortened: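 Tet-One inducible p53 Y220C or R273H constructs were stably introduced into NCI-H1299 by lentiviral transduction; NUGC3 was used as is. Cells (250-500 per well) were exposed to compound for 5 days, then CellTiter-Glo was added for 10 min at room temperature and IC50 was calculated from luminescence.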

[2] = target: T1, p53 Y220C mutant protein (amino acid residues 94-293) (Homo sapiens, UniProt P04637, Y220C); experiment: Surface Plasmon Resonance (SPR) assay, Kd_kinetic; assay type: binding; settings: SPR; p53 Y220C; read-out: SPR P53 Y220C KD kinetic
T1 construct: p53 Y220C mutant protein (amino acid residues 94-293)
Procedure, shortened: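 Surface plasmon resonance is run at 16 or 20 °C in 50 mM Tris pH 7.5 containing 100 mM NaCl, 1 mM DTT, 0.01% Brij35, 0.05% Tween-20 and 1% DMSO. Association and dissociation data are fitted to a 1:1 model.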

[3] = tested on: H1299 p53 Y220C; experiment: Cell Proliferation Assay (CellTiter-Glo, CTG), H1299 p53 Y220C (NClH1299-inducible p53 Y220C); assay type: cell-based; settings: Homo sapiens, NCI-H1299, 120 h, NClH1299-inducible p53 Y220C cells, 5 days
Procedure, shortened: (§1)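 Cells seeded at 250-500 per well and exposed to compound for 5 days. Viability read by CellTiter-Glo luminescence after 10 min at room temperature; IC50 calculated. H1299 lines carry Tet-One inducible p53 mutant constructs introduced by lentiviral transduction.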

[4] = tested on: H1299 p53 R273H; experiment: Cell Proliferation Assay (CellTiter-Glo, CTG), H1299 p53 R273H (NClH1299-inducible p53 R273H); assay type: cell-based; settings: Homo sapiens, NCI-H1299, 120 h, NClH1299-inducible p53 R273H cells, 5 days
Procedure, shortened: as §1

[5] = target: p53 Y220C (Homo sapiens, UniProt P04637, Y220C); experiment: Luciferase Reporter Assay (Luc), p53 response element, NClH1299 cells with inducible p53 Y220C; assay type: cell-based; settings: 6 hour; for AC50: read-out: Luc P53 Y220C AC50
Procedure, shortened: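 Luciferase activity is measured directly after One-Glo addition and a 5-minute room-temperature shake. Before that, cells plated at 5,000 per well receive doxycycline at 0.5 ug/mL for 24 hours, followed by compound for 6 hours.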

[6] = luciferase reporter, NClH1299 inducible p53 Y220C
[7] = NClH1299 cells with inducible p53 Y220C
[8] = NClH1299 cells with inducible p53 Y220C, 10 uM tool compound as positive control

T1 sequence (P04637 94-293, stated change not applied): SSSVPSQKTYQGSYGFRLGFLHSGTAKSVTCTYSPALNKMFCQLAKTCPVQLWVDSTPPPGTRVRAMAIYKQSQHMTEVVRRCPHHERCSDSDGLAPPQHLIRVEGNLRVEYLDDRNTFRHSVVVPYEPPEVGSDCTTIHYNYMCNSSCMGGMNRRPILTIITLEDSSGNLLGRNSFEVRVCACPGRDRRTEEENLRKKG

| Kd [2] [nM] | IC50 ([3]; CellTiter-Glo) [nM] | IC50 ([4]; CellTiter-Glo) [nM] | AC50 [5, 6] [nM] | Emax [5, 6] [%] | IC50 [3] [nM] | IC50 [4] [nM] | AC50 [5, 7] [nM] | Emax [5, 8] [%] | Structure (SMILES) | IC50 ([1]; CellTiter-Glo) [nM] | IC50 [1] [nM] |
| --- | --- | --- | --- | --- | --- | --- | --- | --- | --- | --- | --- |
| < 10 | < 750 | ≥ 10000 | < 750 | > 90 | – | – | – | – | COc1nc(P(C)(C)=O)ncc1NCC#Cc1cc2c(N[C@@H]3CCN(C)C[C@@H]3F)cccn2c1SC(F)(F)F [Example 445, 2-(3-{[2-(dimethylphosphoryl)-4-methoxypyrimidin-5-yl]amino}prop-1-yn-1-yl)-N-[(3S,4R)-3-fluoro-1-methylpiperidin-4-yl]-3-[(trifluoromethyl)sulfanyl]indolizin-8-amine] | < 750 | – |
| < 10 | < 750 | ≥ 10000 | < 750 | > 90 | – | – | – | – | CN1CC[C@@H](Nc2cccn3c(SC(F)(F)F)c(C#CCNc4ccc(C(=O)NCC5COC5)cc4)cc23)[C@@H](F)C1 [Example 447] | < 750 | – |
| < 10 | < 750 | 5000 to 8000 | < 750 | > 90 | – | – | – | – | CNC(=O)c1ccc(OC)c(NCC#Cc2cc3c(N[C@@H]4CCN(C[C@H](C)O)C[C@@H]4F)nccn3c2SC(F)(F)F)c1 [Example 448] | < 750 | – |
| < 10 | – | – | – | – | < 750 | 8000 to 10000 | < 750 | > 90 | CN1CC[C@@H](Nc2cccn3c(SC(F)(F)F)c(C#CCNc4ccc(C(=O)NCC(C)(C)O)cc4)cc23)[C@@H](F)C1 [Example 457] | – | < 750 |
| < 10 | – | – | – | – | < 750 | 8000 to 10000 | < 750 | > 90 | COc1ccc(C(=O)N[C@H](C)[C@H](C)O)cc1NCC#Cc1cc2c(N[C@@H]3CCN(C)C[C@@H]3F)cccn2c1SC(F)(F)F [Example 468] | – | < 750 |
| < 10 | – | – | – | – | < 750 | 5000 to 8000 | < 750 | > 90 | CNC(=O)c1ccc(NCC#Cc2cc3c(N[C@@H]4CCN(C)C[C@@H]4F)cccn3c2SC(F)(F)F)c(O)c1 [Example 469, 4-{[3-(8-{[(3S,4R)-3-fluoro-1-methylpiperidin-4-yl]amino}-3-[(trifluoromethyl)sulfanyl]indolizin-2-yl)prop-2-yn-1-yl]amino}-3-hydroxy-N-methylbenzamide] | – | < 750 |
| < 10 | – | – | – | – | < 750 | ≥ 10000 | < 750 | > 90 | COc1ccc(C(=O)N[C@H]2C[C@@H](O)C2)cc1NCC#Cc1cc2c(N[C@@H]3CCN(C)C[C@@H]3F)cccn2c1SC(F)(F)F [Example 471] | – | < 750 |

Further lines, the compound ahead of its results:

| Structure (SMILES) | Kd [2] [nM] | IC50 ([3]; CellTiter-Glo) [nM] | IC50 ([4]; CellTiter-Glo) [nM] | AC50 [5, 6] [nM] | Emax [5, 6] [%] | IC50 [3] [nM] | IC50 [4] [nM] | AC50 [5, 7] [nM] | Emax [5, 8] [%] | IC50 ([1]; CellTiter-Glo) [nM] | IC50 [1] [nM] |
| --- | --- | --- | --- | --- | --- | --- | --- | --- | --- | --- | --- |
| CNC(=O)c1ccc(NCC#Cc2cc3c(N[C@@H]4CCN(C)C[C@@H]4F)nccn3c2SC(F)(F)F)c(O)c1 [Example 446, 4-{[3-(1-{[(3S,4R)-3-fluoro-1-methylpiperidin-4-yl]amino}-6-[(trifluoromethyl)sulfanyl]pyrrolo[1,2-a]pyrazin-7-yl)prop-2-yn-1-yl]amino}-3-hydroxy-N-methylbenzamide] | < 10 | < 750 | ≥ 10000 | < 750 | > 90 | – | – | – | – | < 750 | – |
| CN1CC[C@@H](Nc2cccn3c(SC(F)(F)F)c(C#CCNc4ccc(P(C)(C)=O)c5c4OCC5)cc23)[C@@H](F)C1 [Example 449] | < 10 | < 750 | 5000 to 8000 | < 750 | > 90 | – | – | – | – | < 750 | – |
| CNC(=O)c1ccc(NCC#Cc2cc3c(N[C@@H]4CCN(C)C[C@@H]4F)cccn3c2SC(F)(F)F)c(C(F)F)c1 [Example 450, 3-(difluoromethyl)-4-{[3-(8-{[(3S,4R)-3-fluoro-1-methylpiperidin-4-yl]amino}-3-[(trifluoromethyl)sulfanyl]indolizin-2-yl)prop-2-yn-1-yl]amino}-N-methylbenzamide] | < 10 | < 750 | ≥ 10000 | < 750 | > 90 | – | – | – | – | < 750 | – |
| COc1cc(C(=O)O)ccc1NCC#Cc1cc2c(N[C@@H]3CCN(C)C[C@@H]3F)cccn2c1SC(F)(F)F [Example 451] | < 10 | < 750 | ≥ 10000 | < 750 | > 90 | – | – | – | – | < 750 | – |
| CN1CC[C@@H](Nc2cccn3c(SC(F)(F)F)c(C#CCNc4ccc(P(C)(C)=O)c5ccoc45)cc23)[C@@H](F)C1 [Example 452] | < 10 | < 750 | < 5000 | < 750 | > 90 | – | – | – | – | < 750 | – |
| CN1CC[C@@H](Nc2cccn3c(SC(F)(F)F)c(C#CCNc4ccc(C(=O)NC[C@@H]5CCO5)cc4)cc23)[C@@H](F)C1 [Example 453] | < 10 | < 750 | ≥ 10000 | < 750 | > 90 | – | – | – | – | < 750 | – |
| CNC(=O)c1ccc(NCC#Cc2cc3c(N[C@@H]4CCNC[C@@H]4F)cccn3c2SC(F)(F)F)c(O)c1 [Example 455, 4-{[3-(8-{[(3S,4R)-3-fluoropiperidin-4-yl]amino}-3-[(trifluoromethyl)sulfanyl]indolizin-2-yl)prop-2-yn-1-yl]amino}-3-hydroxy-N-methylbenzamide] | < 10 | – | – | – | – | < 750 | 5000 to 8000 | < 750 | 80 to 90 | – | < 750 |
| COc1ccc(C(=O)N[C@@H](C)[C@H](C)O)cc1NCC#Cc1cc2c(N[C@@H]3CCN(C)C[C@@H]3F)cccn2c1SC(F)(F)F [Example 456] | < 10 | – | – | – | – | < 750 | ≥ 10000 | < 750 | > 90 | – | < 750 |
| CN1CC[C@@H](Nc2cccn3c(SC(F)(F)F)c(C#CCNc4ccc(C(=O)NC[C@H](O)CO)cc4)cc23)[C@@H](F)C1 [Example 460] | < 10 | – | – | – | – | < 750 | ≥ 10000 | < 750 | > 90 | – | < 750 |
| COc1ccc(C(=O)NC[C@@H](O)CO)cc1NCC#Cc1cc2c(N[C@@H]3CCN(C)C[C@@H]3F)cccn2c1SC(F)(F)F [Example 462] | < 10 | – | – | – | – | < 750 | ≥ 10000 | < 750 | > 90 | – | < 750 |
| CNC(=O)c1ccc(OC2COC2)c(NCC#Cc2cc3c(N[C@@H]4CCNC[C@@H]4F)cccn3c2SC(F)(F)F)n1 [Example 463] | < 10 | – | – | – | – | < 750 | ≥ 10000 | < 750 | > 90 | – | < 750 |
| COc1cc(C(N)=O)ccc1NCC#Cc1cc2c(N[C@@H]3CCN(C)C[C@@H]3F)cccn2c1SC(F)(F)F [Example 464] | < 10 | – | – | – | – | < 750 | ≥ 10000 | < 750 | > 90 | – | < 750 |
| CN1CC[C@@H](Nc2cccn3c(SC(F)(F)F)c(C#CCNc4ccc(C(=O)N[C@H]5C[C@@H](O)C5)cc4)cc23)[C@@H](F)C1 [Example 465] | < 10 | – | – | – | – | < 750 | ≥ 10000 | < 750 | > 90 | – | < 750 |
| CNC(=O)c1ccc(NCC#Cc2cc3c(N[C@@H]4CCN(C)C[C@@H]4F)cccn3c2SC(F)(F)F)c(Cl)c1 [Example 466, 3-chloro-4-{[3-(8-{[(3S,4R)-3-fluoro-1-methylpiperidin-4-yl]amino}-3-[(trifluoromethyl)sulfanyl]indolizin-2-yl)prop-2-yn-1-yl]amino}-N-methylbenzamide] | < 10 | – | – | – | – | < 750 | ≥ 10000 | < 750 | 80 to 90 | – | < 750 |
| [2H]C([2H])([2H])Oc1ccc(C(=O)NC)cc1NCC#Cc1cc2c(N[C@@H]3CCN(C)C[C@@H]3F)nccn2c1SC(F)(F)F [Example 470, 3-((3-(1-(((3S,4R)-3-fluoro-1-methylpiperidin-4-yl)amino)-6-((trifluoromethyl)thio)pyrrolo[1,2-a]pyrazin-7-yl)prop-2-yn-1-yl)amino)-4-(methoxy-d3)—N-methylbenzamide] | < 10 | – | – | – | – | < 750 | ≥ 10000 | < 750 | > 90 | – | < 750 |
| CNC(=O)c1ccc(O)c(NCC#Cc2cc3c(N[C@@H]4CCN(C)C[C@@H]4F)cccn3c2SC(F)(F)F)c1 [Example 472] | < 10 | – | – | – | – | < 750 | ≥ 10000 | < 750 | > 90 | – | < 750 |

Reference: patent publication US20260374766A1, “METHODS FOR TREATING CANCER” (Antares Therapeutics, Inc., priority 2022, published 2026)
